Test results published in paper PMC9758846, “Dinuclear and mononuclear metal(II) polypyridyl complexes against drug-sensitive and drug-resistant Plasmodium falciparum and their mode of action” (Malaria Journal, 2022).
Where a name gives a salt, the structure may show the parent alone. Read-outs that look alike come from different tables or passages of the source. Values belong to the compound of their own block, whether it stands above or below them.

How the values were obtained:
[1] = PNDA assay of •OH radicals from reaction with H2O2; conditions: equimolar test compound with excess H2O2
Protocol: A previously reported spectrometric assay using PNDA was used to quantify the amount of reactive oxygen species (ROS), viz. •OH radicals, produced by the reaction of metal(II) complexes with hydrogen peroxide in borate buffer at pH 7.5 [24–26]. The percentage of PNDA bleaching and the concentration of •OH produced were determined.

[2] = test system: Plasmodium falciparum IPC5202 (Pf5202); assay: In vitro anti-malarial activity using SYBR Green I nucleic acid dye; assay type: cell-based; conditions: for IC50: Plasmodium falciparum, read-out: IC50 of Pf5202; for Drop in efficacy/potency towards Pf5202 relative to Pf3D7: ratio of IC50 values
Protocol: (§1) The drug-sensitive strain of P. falciparum 3D7 (Pf3D7) was obtained from the Department of Science, Monash University, Malaysia and cultured as previously described. The artemisinin-resistant strain of P. falciparum IPC5202 (Pf5202) was obtained from BEI Resources and cultured as mentioned in the product sheet. Both strains were maintained in sealed flask at 37 °C in a humidified atmosphere of 5% O2, 5% CO2 and 90% N2. All buffer stock solutions for biological assays were autoclaved at 121 °C for 15 min.
(§2) Previously reported anti-malarial assay was used with slight modification using 1% parasitaemia (ring-stage) and 5% haematocrit treated with test compounds at increasing concentration and incubated for 72 h at 37 °C [21–23]. After the incubation, the assay was terminated by freeze/thaw cycle (− 80 °C overnight before thawing for 2 h) before the addition of lysis buffer containing SYBR Green I dye into each well and mixed thoroughly using the belly dancer for 30 min in the dark. Chloroquine diphosphate salt and artemisinin were used as standard drugs. The fluorescence signal was quantified at 485 nm excitation wavelength and 528 nm emission wavelength. IC50 values of each test compound was determined from a dose response curve by non-linear regression analysis.

[3] = test system: Plasmodium falciparum 3D7 (Pf3D7); assay: as above; assay type: cell-based; conditions: Plasmodium falciparum, read-out: IC50 of Pf3D7
Protocol: as §1, §2

[4] = test system: Pf3D7; assay: Intracellular ROS level using DCFH-DA; assay type: cell-based, Plasmodium falciparum; conditions: positive control
Protocol: (§3) After incubation, packed cells were washed with phosphate buffer saline (PBS) solution. […] The data was expressed as fold change between amount of ROS produced by treated P. falciparum against untreated P. falciparum. Normalization was done with the percentage of parasite viability obtained at each condition. Hydrogen peroxide was used as positive control.

[5] = test system: Pf5202; assay: Intracellular ROS level using DCFH-DA; assay type: cell-based, Plasmodium falciparum; conditions: positive control
Protocol: as §3

IC50 ([2]; 72 h incubation): > 100 µM
IC50 ([3]; 3D7, 72 h incubation): > 100 µM
SMILES: c1cc(-c2ccncc2)ccn1 [4,4′-bipy, 4,4′-bipyridine]
Generation of ·OH radicals (in words) [1]: did not generate any ·OH radicals

IC50 ([2]; 72 h incubation): > 100 µM
IC50 ([3]; 3D7, 72 h incubation): 0.04 ± 0.01 µM
SMILES: C[C@@H]1CC[C@H]2[C@@H](C)C(=O)O[C@@H]3O[C@@]4(C)CC[C@@H]1[C@]32OO4 [ART, Artemisinin]
Drop in efficacy/potency towards Pf5202 relative to Pf3D7 [2]: more than 3000 ×

IC50 ([2]; 72 h): > 100 µM
IC50 ([3]; 3D7, 72 h): 0.03 ± 0.01 µM
SMILES: CCN(CC)CCCC(C)Nc1ccnc2cc(Cl)ccc12 (stereo not drawn) [CQ, Chloroquine diphosphate salt]
Drop in efficacy/potency towards Pf5202 relative to Pf3D7 [2]: more than 3000 ×

SMILES: OO [Complex H2O2, Hydrogen peroxide, reference compound]
fold change in ROS ([4]; 24 h, 8 µM): 0.90 ± 0.37 fold
fold change in ROS ([4]; 24 h, 40 µM): 1.34 ± 0.67 fold
fold change in ROS ([4]; 24 h, 200 µM): 1.28 ± 0.62 fold
fold change in ROS ([4]; 24 h, 1000 µM): 1.77 ± 0.85 fold
fold change in ROS ([4]; 48 h, 8 µM): 2.97 ± 0.57 fold
fold change in ROS ([4]; 48 h, 40 µM): 3.55 ± 0.9 fold
fold change in ROS ([4]; 48 h, 200 µM): 4.61 ± 0.15 fold
fold change in ROS ([4]; 48 h, 1000 µM): 5.75 ± 0.76 fold
fold change in ROS ([4]; 72 h, 8 µM): 0.25 ± 0.08 fold
fold change in ROS ([4]; 72 h, 40 µM): 0.34 ± 0.12 fold
fold change in ROS ([4]; 72 h, 200 µM): 0.49 ± 0.22 fold
fold change in ROS ([4]; 72 h, 1000 µM): 1.00 ± 0.06 fold
fold change in ROS ([5]; 24 h, 8 µM): 1.10 ± 0.04 fold
fold change in ROS ([5]; 24 h, 40 µM): 1.16 ± 0.13 fold
fold change in ROS ([5]; 24 h, 200 µM): 1.08 ± 0.18 fold
fold change in ROS ([5]; 24 h, 1000 µM): 1.15 ± 0.22 fold
fold change in ROS ([5]; 48 h, 8 µM): 1.78 ± 0.16 fold
fold change in ROS ([5]; 48 h, 40 µM): 1.54 ± 0.28 fold
fold change in ROS ([5]; 48 h, 200 µM): 1.41 ± 0.16 fold
fold change in ROS ([5]; 48 h, 1000 µM): 1.68 ± 0.28 fold
fold change in ROS ([5]; 72 h, 8 µM): 1.82 ± 0.15 fold
fold change in ROS ([5]; 72 h, 40 µM): 1.17 ± 0.36 fold
fold change in ROS ([5]; 72 h, 200 µM): 2.06 ± 0.25 fold
fold change in ROS ([5]; 72 h, 1000 µM): 3.71 ± 0.14 fold
